Read-outs that look alike come from different tables or passages of the source. No end group written: not given here.
What was measured:
[1] = system: Acinetobacter baumannii 17,978; assay type: cell-based;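 note: CLSI broth microdilution in 96-well polypropylene plates, MBC taken as lowest concentration giving no growth when clear wells were subcultured on LB agar for 24 h at 37 °C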
[2] = system: Acinetobacter baumannii 19,606; assay type: cell-based
MDRAB clinical strains = assay type: cell-based, Acinetobacter baumannii
Method: (§1) MBC were determined by extending the MIC procedure in sterilized 96-well polypropylene microtiter plates according to the broth microdilution guidelines of the Clinical and Laboratory Standards Institute with some modification[47]. […] In addition, 10 µL was drawn from each well with no visible turbidity onto LB agar plates and incubated for 24 h at 37 °C. The lowest concentration showing no visible growth on agar subculture was used as the MBC value. All experiments were performed in triplicate.

[3] = system: MDRAB clinical strain J49; assay type: cell-based, Acinetobacter baumannii
MDRAB clinical strain K2 = assay type: cell-based, Acinetobacter baumannii
[4] = system: MDRAB clinical strain Y92; assay type: cell-based, Acinetobacter baumannii
Method: as §1

[5] = system: MDRAB clinical strain W11; assay type: cell-based, Acinetobacter baumannii
[6] = system: MDRAB clinical strain U80; assay type: cell-based, Acinetobacter baumannii
Method: as §1

[7] = system: MDRAB clinical strain U95; assay type: cell-based, Acinetobacter baumannii
Method: as §1

[8] = system: MDRAB clinical strain O59; assay type: cell-based, Acinetobacter baumannii
Method: as §1

[9] = system: MDRAB clinical strain D29; assay type: cell-based, Acinetobacter baumannii
[10] = system: MDRAB clinical strain L87; assay type: cell-based, Acinetobacter baumannii
[11] = system: MDRAB clinical strain AO80; assay type: cell-based, Acinetobacter baumannii
[12] = system: MDRAB clinical strain AS40; assay type: cell-based, Acinetobacter baumannii
[13] = system: MDRAB clinical strain AK29; assay type: cell-based, Acinetobacter baumannii
Method: as §1

[14] = system: MDRAB clinical strain AK61; assay type: cell-based, Acinetobacter baumannii
[15] = system: MDRAB clinical strain AE5; assay type: cell-based, Acinetobacter baumannii
[16] = system: MDRAB clinical strain AE6; assay type: cell-based, Acinetobacter baumannii
[17] = system: MDRAB clinical strain AF11; assay type: cell-based, Acinetobacter baumannii
[18] = system: MDRAB clinical strain AF12; assay type: cell-based, Acinetobacter baumannii
[19] = system: MDRAB clinical strain AF93; assay type: cell-based, Acinetobacter baumannii
[20] = system: MDRAB clinical strain AG51; assay type: cell-based, Acinetobacter baumannii
Method: as §1

[21] = system: MDRAB clinical strain AN10; assay type: cell-based, Acinetobacter baumannii
Method: as §1

[22] = system: MDRAB clinical strain AL87; assay type: cell-based, Acinetobacter baumannii
[23] = system: MDRAB clinical strain AZ93; assay type: cell-based, Acinetobacter baumannii
Method: as §1

[24] = 10 µL from wells without turbidity onto LB agar, 24 h at 37 °C, triplicate

Work on “GWGSFFKKAAHVGKHVGKAALTHYL-NH2 [Pleurocidin]” yielded an MBC ([1]; 17,978, 24 h) of 16 µg/mL, an MIC ([1]; 17,978, 24 h) of 16 µg/mL and an MBC ([2]; 19,606, 24 h) of 16 µg/mL. It also gave an MIC ([2]; 19,606, 24 h) of 16 µg/mL, an MBC (MDRAB clinical strains; 24 h) of 8 to 32 µg/mL and an MIC (MDRAB clinical strains; 24 h) of 8 to 32 µg/mL. The MBC ([3]; 24 h) was 16 µg/mL, the MIC ([3]; 24 h) was 16 µg/mL and the MBC (MDRAB clinical strain K2; 24 h) was 32 µg/mL. For the same substance, the MIC (MDRAB clinical strain K2; 24 h) was 16 µg/mL, the MBC ([4]; 24 h) was 8 µg/mL and the MIC ([4]; 24 h) was 8 µg/mL. For the same substance, the MBC ([5]; 24 h) was 16 µg/mL, the MIC ([5]; 24 h) was 16 µg/mL and the MBC ([6]; 24 h) was 16 µg/mL. It also gave an MIC ([6]; 24 h) of 16 µg/mL, an MBC ([7]; 24 h) of 32 µg/mL and an MIC ([7]; 24 h) of 32 µg/mL. The MBC ([8]; 24 h) was 16 µg/mL, the MIC ([8]; 24 h) was 16 µg/mL and the MBC ([9]; 24 h) was 32 µg/mL. The MIC ([9]; 24 h) was 16 µg/mL, the MBC ([10]; 24 h) was 32 µg/mL and the MIC ([10]; 24 h) was 32 µg/mL. For the same substance, the MBC ([11]; 24 h) was 8 µg/mL, the MIC ([11]; 24 h) was 8 µg/mL and the MBC ([12]; 24 h) was 8 µg/mL. It also gave an MIC ([12]; 24 h) of 8 µg/mL, an MBC ([13]; 24 h) of 16 µg/mL and an MIC ([13]; 24 h) of 8 µg/mL. It also gave an MBC ([14]; 24 h) of 16 µg/mL, an MIC ([14]; 24 h) of 16 µg/mL and an MBC ([15]; 24 h) of 16 µg/mL. It also gave an MIC ([15]; 24 h) of 16 µg/mL, an MBC ([16]; 24 h) of 16 µg/mL and an MIC ([16]; 24 h) of 16 µg/mL. It also gave an MBC ([17]; 24 h) of 16 µg/mL, an MIC ([17]; 24 h) of 8 µg/mL and an MBC ([18]; 24 h) of 8 µg/mL. It also gave an MIC ([18]; 24 h) of 8 µg/mL, an MBC ([19]; 24 h) of 16 µg/mL and an MIC ([19]; 24 h) of 8 µg/mL. For the same substance, the MBC ([20]; 24 h) was 8 µg/mL, the MIC ([20]; 24 h) was 8 µg/mL and the MBC ([21]; 24 h) was 16 µg/mL. The MIC ([21]; 24 h) was 16 µg/mL, the MBC ([22]; 24 h) was 8 µg/mL and the MIC ([22]; 24 h) was 8 µg/mL. It also gave an MBC ([23]; 24 h) of 8 µg/mL and an MIC ([23]; 24 h) of 8 µg/mL.

ILGPVLSMVGSALGGLIKKI-NH2 [Maximin H2] gave an MBC [1, 24] of 128 µg/mL, an MIC ([1]; broth microdilution (CLSI, modified), LB medium, 5 × 10^5 CFU/mL, 24 h at 37 °C, lowest concentration with no visible growth, triplicate) of 64 µg/mL and an MBC [2, 24] of 32 µg/mL. For the same substance, the MIC ([2]; broth microdilution (CLSI, modified), LB medium, 5 × 10^5 CFU/mL, 24 h at 37 °C, triplicate) was 32 µg/mL, the MIC (MDRAB clinical strains; range over MDRAB clinical strains (details in Supplementary Table 2), broth microdilution, LB, 24 h 37 °C) was 16 to 128 µg/mL and the MBC (MDRAB clinical strains; range over MDRAB clinical strains (details in Supplementary Table 2), subculture on LB agar, 24 h 37 °C) was 16 to 128 µg/mL. For the same substance, the MIC ([3]; strain J49, broth microdilution, LB, 24 h 37 °C) was 16 µg/mL, the MBC ([3]; strain J49, subculture on LB agar, 24 h 37 °C) was 16 µg/mL and the MIC (MDRAB clinical strain K2; strain K2, broth microdilution, LB, 24 h 37 °C) was 16 µg/mL. The MBC (MDRAB clinical strain K2; strain K2, subculture on LB agar, 24 h 37 °C) was 32 µg/mL, the MIC ([4]; strain Y92, broth microdilution, LB, 24 h 37 °C) was 64 µg/mL and the MBC ([4]; strain Y92, subculture on LB agar, 24 h 37 °C) was 128 µg/mL. It also gave an MIC ([5]; strain W11, broth microdilution, LB, 24 h 37 °C) of 64 µg/mL, an MBC ([5]; strain W11, subculture on LB agar, 24 h 37 °C) of 128 µg/mL and an MIC ([6]; strain U80, broth microdilution, LB, 24 h 37 °C) of 128 µg/mL. For the same substance, the MBC ([6]; strain U80, subculture on LB agar, 24 h 37 °C) was 128 µg/mL, the MIC ([7]; strain U95, broth microdilution, LB, 24 h 37 °C) was 128 µg/mL and the MBC ([7]; strain U95, subculture on LB agar, 24 h 37 °C) was 128 µg/mL. It also gave an MIC ([8]; strain O59, broth microdilution, LB, 24 h 37 °C) of 128 µg/mL, an MBC ([8]; strain O59, subculture on LB agar, 24 h 37 °C) of 128 µg/mL and an MIC ([9]; strain D29, broth microdilution, LB, 24 h 37 °C) of 128 µg/mL. For the same substance, the MBC ([9]; strain D29, subculture on LB agar, 24 h 37 °C) was 128 µg/mL, the MIC ([10]; strain L87, broth microdilution, LB, 24 h 37 °C) was 128 µg/mL and the MBC ([10]; strain L87, subculture on LB agar, 24 h 37 °C) was 128 µg/mL. It also gave an MIC ([11]; strain AO80, broth microdilution, LB, 24 h 37 °C) of 64 µg/mL, an MBC ([11]; strain AO80, subculture on LB agar, 24 h 37 °C) of 128 µg/mL and an MIC ([12]; strain AS40, broth microdilution, LB, 24 h 37 °C) of 64 µg/mL. It also gave an MBC ([12]; strain AS40, subculture on LB agar, 24 h 37 °C) of 64 µg/mL, an MIC ([13]; strain AK29, broth microdilution, LB, 24 h 37 °C) of 32 µg/mL and an MBC ([13]; strain AK29, subculture on LB agar, 24 h 37 °C) of 32 µg/mL. For the same substance, the MIC ([14]; strain AK61, broth microdilution, LB, 24 h 37 °C) was 64 µg/mL, the MBC ([14]; strain AK61, subculture on LB agar, 24 h 37 °C) was 64 µg/mL and the MIC ([15]; strain AE5, broth microdilution, LB, 24 h 37 °C) was 64 µg/mL. The MBC ([15]; strain AE5, subculture on LB agar, 24 h 37 °C) was 128 µg/mL, the MIC ([16]; strain AE6, broth microdilution, LB, 24 h 37 °C) was 128 µg/mL and the MBC ([16]; strain AE6, subculture on LB agar, 24 h 37 °C) was 128 µg/mL. The MIC ([17]; strain AF11, broth microdilution, LB, 24 h 37 °C) was 128 µg/mL, the MBC ([17]; strain AF11, subculture on LB agar, 24 h 37 °C) was 128 µg/mL and the MIC ([18]; strain AF12, broth microdilution, LB, 24 h 37 °C) was 64 µg/mL. The MBC ([18]; strain AF12, subculture on LB agar, 24 h 37 °C) was 64 µg/mL, the MIC ([19]; strain AF93, broth microdilution, LB, 24 h 37 °C) was 64 µg/mL and the MBC ([19]; strain AF93, subculture on LB agar, 24 h 37 °C) was 64 µg/mL. For the same substance, the MIC ([20]; strain AG51, broth microdilution, LB, 24 h 37 °C) was 32 µg/mL, the MBC ([20]; strain AG51, subculture on LB agar, 24 h 37 °C) was 64 µg/mL and the MIC ([21]; strain AN10, broth microdilution, LB, 24 h 37 °C) was 64 µg/mL. For the same substance, the MBC ([21]; strain AN10, subculture on LB agar, 24 h 37 °C) was 64 µg/mL, the MIC ([22]; strain AL87, broth microdilution, LB, 24 h 37 °C) was 64 µg/mL and the MBC ([22]; strain AL87, subculture on LB agar, 24 h 37 °C) was 64 µg/mL. For the same substance, the MIC ([23]; strain AZ93, broth microdilution, LB, 24 h 37 °C) was 64 µg/mL and the MBC ([23]; strain AZ93, subculture on LB agar, 24 h 37 °C) was 64 µg/mL.
